Measured values reported in the NIST ThermoML archive (doi:10.1016/j.jct.2012.02.028).

Experiment: molar heat capacity at constant pressure
Conditions: 101.33 kPa, Crystal, Vacuum adiabatic calorimetry

O=C([O-])[O-].[Zn+2] [zinc(II) carbonate]
Conditions	molar heat capacity at constant pressure [J/K/mol]
4.397 K	0.009408
4.399 K	0.007545
4.757 K	0.006774
4.774 K	0.006545
5 K	0.00773
5.101 K	0.008038
5.155 K	0.008164
5.346 K	0.01084
5.423 K	0.0117
5.582 K	0.01132
5.688 K	0.00813
5.816 K	0.01409
5.946 K	0.01317
6.06 K	0.0142
6.285 K	0.01382
6.398 K	0.01585
6.723 K	0.01601
6.824 K	0.01961
7.156 K	0.02326
7.254 K	0.02331
7.601 K	0.02683
7.692 K	0.02785
8.054 K	0.03096
8.134 K	0.03204
8.509 K	0.03516
8.576 K	0.03774
8.961 K	0.04103
9.021 K	0.04305
9.412 K	0.0479
9.468 K	0.05013
9.862 K	0.05547
9.915 K	0.05829
10 K	0.05961
10.54 K	0.07294
10.59 K	0.07477
11.45 K	0.09358
11.5 K	0.09604
12.37 K	0.1193
12.41 K	0.1215
13.29 K	0.1517
13.33 K	0.153
14.22 K	0.1928
14.26 K	0.193
15 K	0.2346
15.15 K	0.245
15.18 K	0.2446
16.08 K	0.2992
16.12 K	0.2986
17.02 K	0.3595
17.05 K	0.3608
17.97 K	0.4461
17.99 K	0.4463
18.91 K	0.535
18.93 K	0.5407
19.85 K	0.6305
19.88 K	0.6346
20 K	0.6547
21.27 K	0.8212
21.29 K	0.8243
23.14 K	1.091
23.17 K	1.096
25 K	1.427
25.06 K	1.439
26.95 K	1.841
28.85 K	2.31
30 K	2.613
30.77 K	2.836
32.69 K	3.401
34.62 K	4.038
35 K	4.162
36.33 K	4.607
36.56 K	4.711
38.5 K	5.446
38.58 K	5.466
40 K	6.03
40.52 K	6.253
42.46 K	7.047
44.41 K	7.863
45 K	8.122
46.36 K	8.699
48.32 K	9.572
50 K	10.39
50.28 K	10.5
52.24 K	11.48
54.21 K	12.47
55 K	12.79
56.18 K	13.4
58.15 K	14.28
60 K	15.28
60.13 K	15.34
62.1 K	16.36
64.08 K	17.36
65 K	17.8
66.07 K	18.36
68.03 K	19.3
69.94 K	20.27
70 K	20.32
72.36 K	21.49
75 K	22.79
75.35 K	22.97
78.35 K	24.46
79.92 K	25.19
80 K	25.24
83.21 K	26.77
85 K	27.63
86.23 K	28.21
89.26 K	29.61
90 K	29.96
92.3 K	31
95 K	32.21
95.35 K	32.37
98.41 K	33.68
100 K	34.37
101.48 K	34.99
104.55 K	36.23
105 K	36.41
107.64 K	37.47
110 K	38.38
110.74 K	38.65
113.84 K	39.83
115 K	40.26
116.95 K	40.98
120 K	42.07
120.07 K	42.09
123.2 K	43.18
126.34 K	44.26
129.51 K	45.31
130 K	45.47
132.66 K	46.33
135.83 K	47.34
139 K	48.32
140 K	48.63
142.19 K	49.32
145.38 K	50.23
148.58 K	51.14
150 K	51.6
151.79 K	52.15
155.01 K	53.02
158.25 K	53.93
160 K	54.36
161.49 K	54.75
164.72 K	55.64
167.92 K	56.45
170 K	56.93
171.08 K	57.17
174.21 K	57.91
177.3 K	58.72
180 K	59.33
180.39 K	59.37
183.43 K	60.04
186.44 K	60.81
189.44 K	61.49
190 K	61.57
192.42 K	62.17
195.37 K	62.73
198.3 K	63.33
200 K	63.68
201.2 K	63.91
204.09 K	64.5
206.97 K	65.04
209.83 K	65.68
210 K	65.75
212.67 K	66.32
215.51 K	66.8
218.32 K	67.43
220 K	67.73
221.12 K	67.91
223.9 K	68.47
226.71 K	68.96
229.46 K	69.59
230 K	69.62
232.21 K	70.19
234.93 K	70.69
237.65 K	71.17
240 K	71.45
240.37 K	71.48
243.07 K	71.89
245.76 K	72.45
248.45 K	72.82
250 K	73.2
251.12 K	73.38
253.79 K	73.81
256.45 K	74.15
259.09 K	74.66
260 K	74.88
261.74 K	75.21
264.38 K	75.75
267.01 K	76.21
269.71 K	76.37
270 K	76.38
272.34 K	76.67
273.15 K	76.84
274.96 K	77.02
277.57 K	77.36
280 K	77.83
280.18 K	77.77
282.78 K	78.17
285.37 K	78.56
287.95 K	78.94
290 K	79.24
290.53 K	79.31
293.11 K	79.67
295.68 K	80.03
298.15 K	80.36
298.24 K	80.38
300 K	80.6
300.8 K	80.74
303.36 K	81.1
305.91 K	81.42
308.46 K	81.77
310 K	81.91
311.15 K	82.06
313.7 K	82.4
316.26 K	82.71
318.8 K	83
320 K	83.17
321.35 K	83.28
